Reference: patent publication US11723907B2, “Anti-aging compounds” (THE CLEVELAND CLINIC FOUNDATION, priority 2017, dated 2023)

How the values were obtained:
cytochrome c = test: Enzymatic NAD(P)H oxidation / cytochrome c reduction catalyzed by N2N1; assay type: biochemical
Experimental: FIGS. 5A-5C provide graphs and schemes relating to the N2N1 mechanism of action. […] No specific substrate was added into reaction mix, therefore, it was concluded that reaction was driven by slow reduction of molecular oxygen dissolved into reaction buffer. The hypothetical reaction equation is shown below reaction plots. (B) The proposed molecular mechanism of possible substrate reduction catalyzed by N2N1. (C) Addition of peroxide or cytochrome c into reaction allowed us to identify cytochrome c as the most preferable substrate for the N2N1 driven enzymatic reaction. […] It was interesting to notice that addition of cytochrome c to non-enzymatic reaction reduced the reaction rate. […] The hypothetical reaction equation is show below the reaction plots.
FIGS. 6A-6B provide graphs showing the enzymatic reduction of cytochrome C catalyzed by N2N1 can utilize both NADH and NADPH. (A) The enzymatic electrons transfer from NADH to cytochrome c driven by N2N1 was monitored by decrease in absorption at 340 nm (NADH) and increase in absorption at 550 nm (cytochrome c). The absorbance spectrum was screened at the end of the reaction (˜1 hour). The hypothetical reaction equation is shown below the reaction plots. (B) The enzymatic electrons transfer from NADPH to cytochrome c driven by N2N1 was monitored by decrease in absorption at 340 nm (NADPH) and increase in absorption at 550 nm (cytochrome c). The hypothetical reaction equation is shown below the reaction plots.
To evaluate possible participation of mitochondrial NADH oxidoreductases, in particular Complex I and III, the […] was run in the presence of rotenone or antimycin A (2 μM). The acquired data allowed us to specify the most probable candidate that carry out the transfer electrons from NAD(P)H to cytochrome C driven by N2N1. The NQO1 protein would be the most likely candidate, while proteins from CYB5 family still cannot be ruled out.
Bonkowski et al., Nature reviews. Molecular cell biology 17, 679-690 (2016); Orr et al., Antioxidants & redox signaling 19, 788-803 (2013). It quite possible, that NAD(P)H oxidation catalyzed by N2N1 is performed by NADH:cytochrome b5 reductases (CYB5 . . . ) or NAD(P)H:quinone oxidoreductase (NQO1) reductase (FIG. 3C). The inventors found by RNA-seq analysis that fourteen genes from CYB5 family were expressed in normal fibroblast. NQO1 was also detected at the high level of expression. These reductases connect aerobic metabolism with aging by directed electron flow from NAD(P)H to oxygen, cytochrome C, and peroxide. Jimenez-Hidalgo et al., Aging cell 8, 140-151 (2009). […]

[1] = Non-enzymatic electron transfer from NAD(P)H to oxidized glutathione; assay type: biochemical; conditions: potassium phosphate buffer pH 7.0, 37° C.
Experimental: FIGS. 4A 4B provide graphs and schemes showing VA's mechanism of action. […] (A) Different concentrations of VA were incubated with GssG in potassium phosphate buffer at pH 7.0, 37° C. […] The effective concentrations of VA were similar to the detected for the extension of RLS in normal or progeroid cells. (B) The proposed molecular mechanism of glutathione reduction catalyzed by VA. The slightly acidic buffers (pH 7.0) supplemented with potassium (100 mM) were the preferable reaction conditions.
Lead compounds were tested on their possible catalytic amelioration of enzyme kinetics with all above mentioned proteins: recombinant and presented in cellular lysates.

O=C1/C(=N/O)C=Cc2ccccc21 [N2N1, 1-naphthoquinone-2-monoxime]
catalysis of enzymatic NADH and NADPH conversion (cytochrome c; 1 μM): actively catalyze
time to complete reduction of cytochrome c (cytochrome c; 0.5 mM cytochrome c, NADH or NADPH): 10 to 15 min

O=C1NC(=O)C(=NO)C(=O)N1 [VA, 2,4,5,6(1H,3H)-pyrimidine-tetrone 5-oxime]
rate of NAD(P)H oxidation by GssG [1]: substantially increase the reaction rate
